# Patent US20240365736A1, “COMPOSITIONS AND METHODS FOR TARGETED DEGRADATION OF PROTEINS IN A PLANT CELL” (Oerth Bio LLC, priority 2021, published 2024)
# Where two headings read alike, the source gives them in different places.
# Experiments:
# [1] = tested on: Matricaria recutita, Diplotaxis tenuifolia, Agrostis spp., Poa annua, or Arabidopsis thaliana; experiment: Plant phenotyping assay (herbicidal phenotypes, 96-well plates); type: in vivo; settings: visual score of herbicidal phenotypes after seven days; 238, 475, 950, and 1900 g ai/ha (50-400 uM); also: key: '+++' is highly active; '++' is moderately active; '+' is weakly active; '−' is inactive
# [2] = Uptake in plant cells: LCMS quantification in treated Abutilon leaves and leaf washings; type: in vivo; settings: for concentration at 24 h: Abutilon (plant), topical, 10 μL of 400 μM formulation per leaf
# Procedure: Abutilon plants were sown in 3 inch pots and allowed to germinate and reach the two leaf stage. At the two leaf stage, plants were separated into groups of 8 plants and had one of their first true leaves labeled with a black marker. Formulation treatment samples were prepared using the following protocol. All treatment samples were prepared to 400 μM. Just before treatment, samples were emulsified and 10 μL of formulated compound was pipetted onto leaves marked for treatment in small droplets evenly across the leaf surface. Once all leaves were treated, they were allowed to sit undisturbed in a growth chamber for 24 hours. After 24 hours plants were removed from the chamber for sample collection.
# Using clean scissors treated leaves were removed from the plants, and washed in 20 mL of LCMS grade acetonitrile. A sample of the wash solution was collected and set aside for analysis. The washed leaves were then stored in 7 mL centrifuge tubes and set aside. 8 treated leaves from a grouping were stored in the same sample tube. The untreated leaves were collected and stored in separate 7 mL tubes. The same was done with new growth.
# The samples were stored in a −80° C. freezer for 24 hours before milling. Fresh stock of 80:20 LCMS grade acetonitrile and water was prepared as a milling solution. 3 to 4 ceramic milling beads were added to each tube along with 300 μL of milling solution. Tubes were sealed and put into a benchtop homogenizer. Samples were milled for two 12 second intervals at maximum speed with a 30 second rest period in between. Samples were then moved to a 4° C. centrifuge where they were centrifuged at 15000 rpm for 6 minutes. Supernatant was collected and put into 2 mL microcentrifuge tubes. […]
# Samples were run with injections of 10 μL. Data was analyzed and calibration curves were built for known samples, using area under the curve for [M+H]. Unknown concentrations were calculated with the calibration curves to determine the amount of PROTAC® compound present at 24 hours in treated leaves and in the leaf washings.
structure (smiles),measurement,setting,value
"COc1cnc(OC)n2nc(NS(=O)(=O)c3c(OCCOCCOCCOCCOCCOCCOc4ccc5c(c4)C(=O)N(C4CCC(=O)NC4=O)C5=O)cccc3C(F)(F)F)nc12 (stereo not shown) [Compound 4-B, N-(5,8-Dimethoxy-[1,2,4]triazolo[1,5-c]pyrimidin-2-yl)-2-((17-((2-(2,6-dioxopiperidin-3-yl)-1,3-dioxoisoindolin-5-yl)oxy)-3,6,9,12,15-pentaoxaheptadecyl)oxy)-6-(trifluoromethyl)benzenesulfonamide]",Plant Activity,[1],+++
same,concentration at 24 h,"[2]; leaf wash (20 mL acetonitrile), wash of treated Abutilon leaves in 20 mL acetonitrile, 24 hours after treatment, read-out: Average Concentration μM (leaf wash)",0.342 µM
same,concentration at 24 h,"[2]; treated leaves (milled extract supernatant), Abutilon treated leaves, 24 hours after 10 μL of 400 μM formulated compound on leaf, read-out: Average Concentration μM (treated leaves)",0.491 µM
same,Uptake by leaves,"[2]; Abutilon leaves, 24 hours",effectively taken up by leaves
